Read-outs that look alike come from different tables or passages of the source.
Key:
[1] = system: NCI-H358 cells (K-Ras G12C); experiment: Potency assay: pERK in NCI-H358 cells; type: cell-based, human; conditions: Homo sapiens, NCI-H358; H358 KRAS G12C; read-out: pERK EC50
Summary of the method: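 pERK decrease read by AlphaLISA SureFire p-ERK1/2 or In-Cell Western after 4 h compound exposure at 37 °C, 5% CO2.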

[2] = molecular target: NRAS WT (Homo sapiens (Human), UniProt P01111+P62937); experiment: Ras-Raf (BRAF RBD) disruption / FRET / MOA assay, NRAS WT; type: biochemical; conditions: read-out: IC50* NRAS WT FRET data
Chain of NRAS WT (P01111 whole entry): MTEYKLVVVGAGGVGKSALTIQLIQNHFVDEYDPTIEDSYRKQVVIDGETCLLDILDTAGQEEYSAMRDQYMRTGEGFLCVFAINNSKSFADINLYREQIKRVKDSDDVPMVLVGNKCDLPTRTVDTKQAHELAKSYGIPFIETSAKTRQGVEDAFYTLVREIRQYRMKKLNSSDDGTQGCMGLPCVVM
Chain of NRAS WT (P62937 whole entry): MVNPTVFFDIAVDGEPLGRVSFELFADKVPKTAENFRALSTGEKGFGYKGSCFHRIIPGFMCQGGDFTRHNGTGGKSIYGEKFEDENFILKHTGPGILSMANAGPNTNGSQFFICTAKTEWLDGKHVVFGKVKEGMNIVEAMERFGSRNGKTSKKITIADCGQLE
Summary of the method: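 TR-FRET disruption of nucleotide-loaded Ras binding to BRAF RBD via compound-driven ternary complex with cyclophilin A. Compound as 10-point 3-fold series from 30 μM final, 3 h at 25° C, then anti-His Eu-W1024 (10 nM) and anti-GST allophycocyanin (50 nM) for 1.5 h. IC50 from decreased FRET ratio versus DMSO.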

[3] = molecular target: KRAS WT (Homo sapiens (Human), UniProt P01116+P62937); experiment: Ras-Raf (BRAF RBD) disruption / FRET / MOA assay, KRAS WT; type: biochemical
Chain of KRAS WT (P01116-2 other isoform, or with tags, fused parts or gaps): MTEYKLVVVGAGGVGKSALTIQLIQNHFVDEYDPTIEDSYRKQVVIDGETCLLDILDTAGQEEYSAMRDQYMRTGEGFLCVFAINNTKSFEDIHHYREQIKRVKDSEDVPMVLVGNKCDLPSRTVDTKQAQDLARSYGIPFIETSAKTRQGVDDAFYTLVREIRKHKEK
Chain of KRAS WT (P62937 whole entry): as the sequence (P62937 whole entry) above
Summary of the method: (§1)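 Compounds, top final concentration 30 μM in 10-point 3-fold series, incubated 3 hours at 25° C with nucleotide-loaded Ras, cyclophilin A and BRAF RBD.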

[4] = molecular target: K-Ras G13C (Homo sapiens (Human), UniProt P01116+P62937, G13C); experiment: Ras-Raf (BRAF RBD) disruption / FRET / MOA assay, KRAS G13C; type: biochemical; conditions: KRAS G13C, Ras-Raf disruption/FRET/MOA assay
Chain of K-Ras G13C (P01116-2 other isoform, or with tags, fused parts or gaps G13C): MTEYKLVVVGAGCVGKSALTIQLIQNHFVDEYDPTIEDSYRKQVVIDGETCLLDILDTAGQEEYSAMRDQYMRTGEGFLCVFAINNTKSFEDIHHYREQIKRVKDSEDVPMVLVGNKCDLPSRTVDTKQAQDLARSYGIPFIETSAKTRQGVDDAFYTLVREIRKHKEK
Chain of K-Ras G13C (P62937 whole entry): as the sequence (P62937 whole entry) above
Summary of the method: as §1

[5] = molecular target: NRAS G12C (Homo sapiens (Human), UniProt P01111+P62937, G12C); experiment: Ras-Raf (BRAF RBD) disruption / FRET / MOA assay, NRAS G12C; type: biochemical
Chain of NRAS G12C (P01111 whole entry G12C): as the sequence (P01111 whole entry) above, with G12C counted along it
Chain of NRAS G12C (P62937 whole entry): as the sequence (P62937 whole entry) above
Summary of the method: as §1

[6] = molecular target: KRAS G12D (Homo sapiens (Human), UniProt P01116+P62937, G12D); experiment: Ras-Raf (BRAF RBD) disruption / FRET / MOA assay, KRAS G12D; type: biochemical; conditions: class symbols
Chain of KRAS G12D (P01116-2 other isoform, or with tags, fused parts or gaps G12D): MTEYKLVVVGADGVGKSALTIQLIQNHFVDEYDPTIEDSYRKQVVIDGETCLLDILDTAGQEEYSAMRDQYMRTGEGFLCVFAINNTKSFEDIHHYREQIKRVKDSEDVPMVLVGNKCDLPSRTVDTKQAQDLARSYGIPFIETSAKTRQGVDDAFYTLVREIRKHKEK
Chain of KRAS G12D (P62937 whole entry): as the sequence (P62937 whole entry) above
Summary of the method: as §1

[7] = molecular target: K-Ras G12C (Homo sapiens (Human), UniProt P01116+P62937, G12C); experiment: Ras-Raf (BRAF RBD) disruption / FRET / MOA assay, KRAS G12C; type: biochemical; conditions: KRAS G12C, Ras-Raf disruption/FRET/MOA assay
Chain of K-Ras G12C (P01116-2 other isoform, or with tags, fused parts or gaps G12C): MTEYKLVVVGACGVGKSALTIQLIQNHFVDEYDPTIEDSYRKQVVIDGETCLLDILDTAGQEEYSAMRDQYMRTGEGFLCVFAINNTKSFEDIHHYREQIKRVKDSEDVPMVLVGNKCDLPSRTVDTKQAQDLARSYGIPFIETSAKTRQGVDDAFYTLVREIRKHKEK
Chain of K-Ras G12C (P62937 whole entry): as the sequence (P62937 whole entry) above
Summary of the method: as §1

[8] = read-out: IC50* KRAS WT FRET data
[9] = read-out: IC50* KRAS G13C FRET data
[10] = read-out: IC50* NRAS G12C FRET data
[11] = Ras-Raf disruption/FRET/MOA assay, read-out: KRAS G12D FRET data IC50
[12] = read-out: IC50* KRAS G12C FRET data

| Compound | EC50 [1] | IC50 [2] | IC50 [3, 8] | IC50 [4, 9] | IC50 [5, 10] | IC50 [6, 11] | IC50 [7, 12] | IC50 ([3]; IC50* KRAS WT FRET data) | IC50 ([4]; IC50* KRAS G13C FRET data) | IC50 ([5]; IC50* NRAS G12C FRET data) | IC50 ([6]; KRAS G12D FRET data IC50, Ras-Raf disruption/FRET/MOA assay) | IC50 ([7]; IC50* KRAS G12C FRET data) |
| --- | --- | --- | --- | --- | --- | --- | --- | --- | --- | --- | --- | --- |
| C=CC(=O)N1CC[C@H](C(=O)N(C)[C@H](C(=O)N[C@H]2Cc3coc(n3)-c3ccc4c(c3)c(c(-c3cccnc3[C@H](C)OC)n4CC)CC(C)(C)COC(=O)[C@@H]3CCCN(N3)C2=O)C(C)C)C1 (atropisomer, axis not shown) [Example A468] | < 5000 nM | 1000 to 10000 nM | 1000 to 10000 nM | 1000 to 10000 nM | 100 to 1000 nM | > 10000 nM | 100 to 1000 nM | – | – | – | – | – |
| C=CC(=O)N1CCN(C(=O)N(C)[C@H](C(=O)N[C@H]2Cc3nc(cs3)-c3ccc4c(c3)c(c(-c3cccnc3[C@H](C)OC)n4CC)CC(C)(C)COC(=O)[C@@H]3CCCN(N3)C2=O)C(C)C)CC1 (atropisomer, axis not shown) [Example A491] | < 5000 nM | 10 to 100 nM | 10 to 100 nM | 10 to 100 nM | 10 to 100 nM | 100 to 1000 nM | 10 to 100 nM | – | – | – | – | – |
| C=CC(=O)N1CC[C@H](C(=O)N(C)[C@H](C(=O)N[C@H]2Cc3nc(cs3)-c3ccc4c(c3)c(c(-c3cccnc3[C@H](C)OC)n4CC(F)(F)F)CC(C)(C)COC(=O)[C@@H]3CCCN(N3)C2=O)C(C)C)C1 (atropisomer, axis not shown) [Example A502] | < 5000 nM | 100 to 1000 nM | 1000 to 10000 nM | 100 to 1000 nM | 100 to 1000 nM | 1000 to 10000 nM | 100 to 1000 nM | – | – | – | – | – |
| C=CC(=O)N1CC[C@H](C(=O)N(C)[C@H](C(=O)N[C@H]2Cc3cc(CF)cc(c3)-c3ccc4c(c3)c(c(-c3cccnc3[C@H](C)OC)n4CC)CC(C)(C)COC(=O)[C@@H]3CCCN(N3)C2=O)C(C)C)C1 (atropisomer, axis not shown) [Example A503] | < 5000 nM | 1000 to 10000 nM | 1000 to 10000 nM | 100 to 1000 nM | 10 to 100 nM | 1000 to 10000 nM | 10 to 100 nM | – | – | – | – | – |
| C=CC(=O)N1CC[C@H](C(=O)N(C)[C@H](C(=O)N[C@H]2Cc3cccc(c3)-c3ccc4c(c3)c(c(-c3cc(CN(C)C)cnc3[C@H](C)OC)n4CC)CC(C)(C)COC(=O)[C@@H]3CCCN(N3)C2=O)C(C)C)C1 (atropisomer, axis not shown) [Example A522] | < 5000 nM | 1000 to 10000 nM | 1000 to 10000 nM | 1000 to 10000 nM | 100 to 1000 nM | > 10000 nM | 100 to 1000 nM | – | – | – | – | – |
| C=CC(=O)N1CCO[C@H]2CN(C(=O)N(C)[C@H](C(=O)N[C@H]3Cc4cc(C(F)F)cc(n4)-c4ccc5c(c4)c(c(-c4cccnc4[C@H](C)OC)n5CC(F)(F)F)CC(C)(C)COC(=O)[C@@H]4CCCN(N4)C3=O)C(C)C)C[C@H]21 (atropisomer, axis not shown) [Example A540] | < 5000 nM | 1000 to 10000 nM | – | – | – | – | – | 1000 to 10000 nM | 10 to 100 nM | 100 to 1000 nM | > 10000 nM | 100 to 1000 nM |
| C=CC(=O)N1CCO[C@@H]2CN(C(=O)N(C)[C@H](C(=O)N[C@H]3Cc4nc(cs4)-c4ccc5c(c4)c(c(-c4cccnc4[C@H](C)OC)n5CC)CC(C)(C)COC(=O)[C@@H]4CCCN(N4)C3=O)C(C)C)C[C@H]21 (atropisomer, axis not shown) [Example A543] | < 5000 nM | 100 to 1000 nM | 100 to 1000 nM | 100 to 1000 nM | < 10 nM | 1000 to 10000 nM | < 10 nM | – | – | – | – | – |
| C=CC(=O)N1CCO[C@H]2CN(C(=O)N(C)[C@H](C(=O)N[C@H]3Cc4nc(cs4)-c4ccc5c(c4)c(c(-c4cccnc4[C@H](C)OC)n5CC)CC(C)(C)COC(=O)[C@@H]4CCCN(N4)C3=O)C(C)C)C[C@@H]21 (atropisomer, axis not shown) [Example A544] | < 5000 nM | 100 to 1000 nM | 100 to 1000 nM | 100 to 1000 nM | < 10 nM | 1000 to 10000 nM | < 10 nM | – | – | – | – | – |
| C=CC(=O)N1CCOC2(CCN(C(=O)N(C)[C@H](C(=O)N[C@H]3Cc4nsc(n4)-c4ccc5c(c4)c(c(-c4cccnc4[C@H](C)OC)n5CC)CC(C)(C)COC(=O)[C@@H]4CCCN(N4)C3=O)C(C)C)CC2)C1 (atropisomer, axis not shown) [Example A545] | < 5000 nM | 100 to 1000 nM | 100 to 1000 nM | 10 to 100 nM | 10 to 100 nM | 1000 to 10000 nM | 10 to 100 nM | – | – | – | – | – |
| C=CC(=O)N1CC[C@@H]2[C@H]1CN2C(=O)N(C)[C@H](C(=O)N[C@H]1Cc2nc(cs2)-c2ccc3c(c2)c(c(-c2cccnc2[C@H](C)OC)n3CC)CC(C)(C)COC(=O)[C@@H]2CCCN(N2)C1=O)C(C)C (atropisomer, axis not shown) [Example A546] | < 5000 nM | 100 to 1000 nM | 1000 to 10000 nM | 10 to 100 nM | 100 to 1000 nM | 1000 to 10000 nM | 100 to 1000 nM | – | – | – | – | – |
| CCn1c(-c2cccnc2[C@H](C)OC)c2c3cc(ccc31)-c1cccc(c1)C[C@H](NC(=O)[C@H](C(C)C)N1CC[C@@]3(CCN(C(=O)C#C[C@H]4COCCN4C)C3)C1=O)C(=O)N1CCC[C@H](N1)C(=O)OCC(C)(C)C2 (atropisomer, axis not shown) [Example A551] | < 5000 nM | 1000 to 10000 nM | 1000 to 10000 nM | 100 to 1000 nM | < 10 nM | 1000 to 10000 nM | < 10 nM | – | – | – | – | – |
| CCn1c(-c2cccnc2[C@H](C)OC)c2c3cc(ccc31)-c1cccc(c1)C[C@H](NC(=O)[C@H](C(C)C)N1CO[C@@]3(CCN(C(=O)/C=C/CN(C)C)C3)C1=O)C(=O)N1CCC[C@H](N1)C(=O)OCC(C)(C)C2 (atropisomer, axis not shown) [Example A558] | < 5000 nM | 100 to 1000 nM | 100 to 1000 nM | 100 to 1000 nM | 10 to 100 nM | 1000 to 10000 nM | 10 to 100 nM | – | – | – | – | – |
| CO[C@@H](COC1CN(C(=O)C#CC(C)(C)N(C)C)C1)C(=O)N[C@H]1Cc2coc(n2)-c2ccc3c(c2)c(c(-c2cccnc2[C@H](C)OC)n3CC(F)(F)F)CC(C)(C)COC(=O)[C@@H]2CCCN(N2)C1=O (atropisomer, axis not shown) [Example A579] | < 5000 nM | 1000 to 10000 nM | 1000 to 10000 nM | 1000 to 10000 nM | < 10 nM | > 10000 nM | < 10 nM | – | – | – | – | – |
| C=CC(=O)N1CCO[C@H]2CCN(C(=O)N(C)[C@H](C(=O)N[C@H]3Cc4nc(cs4)-c4ccc5c(c4)c(c(-c4cccnc4[C@H](C)OC)n5CC)CC(C)(C)COC(=O)[C@@H]4CCCN(N4)C3=O)C(C)C)C[C@H]21 (atropisomer, axis not shown) [Example A580] | < 5000 nM | 100 to 1000 nM | 100 to 1000 nM | 100 to 1000 nM | 10 to 100 nM | 1000 to 10000 nM | 10 to 100 nM | – | – | – | – | – |
| C=CC(=O)NCCN1CCN(C(=O)N(C)[C@H](C(=O)N[C@H]2Cc3nc(cs3)-c3ccc4c(c3)c(c(-c3cccnc3[C@H](C)OC)n4CC)CC(C)(C)COC(=O)[C@@H]3CCCN(N3)C2=O)C(C)C)CC1 (atropisomer, axis not shown) [Example A582] | < 5000 nM | 100 to 1000 nM | 100 to 1000 nM | 100 to 1000 nM | 10 to 100 nM | 1000 to 10000 nM | 100 to 1000 nM | – | – | – | – | – |
| CCn1c(-c2cccnc2[C@H](C)OC)c2c3cc(ccc31)-c1cccc(c1)C[C@H](NC(=O)[C@@H](CO[C@@H]1CCN(C(=O)C#CC(C)(C)N(C)C)C1)C(C)C)C(=O)N1CCC[C@H](N1)C(=O)OCC(C)(C)C2 (atropisomer, axis not shown) [Example A584] | < 5000 nM | 1000 to 10000 nM | > 10000 nM | 1000 to 10000 nM | 10 to 100 nM | > 10000 nM | 10 to 100 nM | – | – | – | – | – |
